Reference: patent US11884659B1, “1-cyclopropyl-6-fluoro-4-oxo-7-(4-((5-(quinolin-2-ylmethyleneamino)-2-thioxo-1,3,4- thiadiazol-3(2H)-yl)methyl) piperazin-1-yl)-1,4-dihydroquinoline-3-carboxylic acid as an anti-inflammatory compound” (KING FAISAL UNIVERSITY, priority 2023, dated 2024)

Tests used:
BSA = BSA (Bos taurus, UniProt P02769); assay: Bovine Serum Albumin Assay (BSA), inhibition of heat-induced protein denaturation; conditions: 20, 40, 60, 80 and 100 μg/mL; 0.4% w/v BSA, pH 6.4, 72° C. for 10 minutes; turbidity at 660 nm
BSA, sequence (P02769 25-607): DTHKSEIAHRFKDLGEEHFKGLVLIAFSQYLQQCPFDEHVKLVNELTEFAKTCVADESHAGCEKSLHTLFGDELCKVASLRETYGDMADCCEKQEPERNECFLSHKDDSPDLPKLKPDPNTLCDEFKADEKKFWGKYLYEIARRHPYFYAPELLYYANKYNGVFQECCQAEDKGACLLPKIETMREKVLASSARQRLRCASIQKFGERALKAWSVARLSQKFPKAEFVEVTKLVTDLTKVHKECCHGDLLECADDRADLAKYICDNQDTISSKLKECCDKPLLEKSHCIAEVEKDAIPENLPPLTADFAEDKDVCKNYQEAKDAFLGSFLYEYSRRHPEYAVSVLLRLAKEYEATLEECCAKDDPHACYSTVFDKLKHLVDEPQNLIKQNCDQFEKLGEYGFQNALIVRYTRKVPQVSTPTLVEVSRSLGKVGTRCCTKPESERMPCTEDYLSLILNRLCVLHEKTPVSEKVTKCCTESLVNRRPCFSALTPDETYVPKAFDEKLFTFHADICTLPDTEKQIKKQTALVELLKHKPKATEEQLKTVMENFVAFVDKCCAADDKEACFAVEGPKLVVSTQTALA
Experimental: Bovine Serum Albumin Assay (BSA)
In vitro-inflammatory activities of the tested samples were determined using a modified method of the BSA assay reported by Williams et al. BSA solution (0.4%, w/v) was prepared in Tris Buffered Saline. The pH was adjusted to 6.4 with glacial acetic acid. Different dilutions of 20, 40, 60, 80, and 100 μg/mL of 1-cyclopropyl-6-fluoro-4-oxo-7-(4-((5-(quinolin-2-ylmethyleneamino)-2-thioxo-1,3,4-thiadiazol-3(2H)-yl)methyl)piperazin-1-yl)-1,4-dihydroquinoline-3-carboxylic acid (IV) the stock solutions were added to test tubes containing 1 mL of 0.4%, w/v BSA buffer solution. Both negative (solvent) and positive (aspirin) controls were assayed in a similar manner. The solutions were then heated in a water bath at 72° C. for 10 minutes and cooled for 20 minutes under laboratory conditions. The turbidity of the solutions (level of protein precipitation) was measured at 660 nm in Spectrophotometer (V-770 UV-Visible/NIR Spectrophotometer). The percentage inhibition of precipitation (protein denaturation) was determined relative to the negative control using the following equation:
[formula] [formula] Anti-Inflammatory Activity

With `O=C(O)c1cn(C2CC2)c2cc(N3CCN(Cn4nc(/N=C/c5ccc6ccccc6n5)sc4=S)CC3)c(F)cc2c1=O` [IV, 1-cyclopropyl-6-fluoro-4-oxo-7-(4-((5-(quinolin-2-ylmethyleneamino)-2-thioxo-1,3,4-thiadiazol-3(2H)-yl)methyl)piperazin-1-yl)-1,4-dihydroquinoline-3-carboxylic acid] the “in vitro anti-inflammatory activity (inhibition of protein denaturation)” value (BSA) was “considerable anti-inflammatory effect” and the melting point was 232 to 235 °C.
